Reference: PMC6106167, “Small‐Molecule Neuromedin U Receptor 2 Agonists Suppress Food Intake and Decrease Visceral Fat in Animal Models” (Pharmacology Research & Perspectives, 2018)
Read-outs that look alike come from different tables or passages of the source.

Assays:
[1] = molecular target: T1, neuromedin U receptor 2 (NMUR2) (Homo sapiens, UniProt Q9GZQ4); assay: GloSensor cAMP inhibition (Gi mode) in hNMUR2 HEK293 cells; no effect in cells lacking NMUR2; FLIPR calcium EC50 […]; format: cell-based; settings: read-out: Gi/o EC50
T1 construct: human NMUR2 stably expressed in HEK293 cells

[2] = molecular target: T1, neuromedin U receptor 2 (NMUR2); assay: as above; format: cell-based; settings: read-out: Gi/o EC50; remark: listed apart in the source

T1 sequence (Q9GZQ4 whole entry): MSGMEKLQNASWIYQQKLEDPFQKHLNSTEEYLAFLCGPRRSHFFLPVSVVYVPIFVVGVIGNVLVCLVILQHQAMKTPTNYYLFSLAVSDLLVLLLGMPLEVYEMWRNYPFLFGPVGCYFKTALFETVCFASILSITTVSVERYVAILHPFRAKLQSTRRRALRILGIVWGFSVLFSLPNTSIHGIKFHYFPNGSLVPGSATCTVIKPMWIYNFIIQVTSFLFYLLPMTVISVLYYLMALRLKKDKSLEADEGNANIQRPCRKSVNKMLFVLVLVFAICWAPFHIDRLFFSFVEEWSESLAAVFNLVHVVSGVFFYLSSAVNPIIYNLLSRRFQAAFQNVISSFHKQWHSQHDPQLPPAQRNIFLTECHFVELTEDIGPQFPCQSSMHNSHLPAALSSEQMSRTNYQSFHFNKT

EC50 [1]	EC50 [2]	SMILES
0.71 nM		N=C(N)NCCCOC(c1ccccc1)(c1ccccc1)c1ccccc1 [NY0128]
	1.69 nM	N=C(N)NCCOC(c1ccccc1)(c1ccccc1)c1ccccc1 [NY0116]
